Test results reported in the supplement of paper PMC10307832.

Key:
Assay in all cases: relative viability (nuclei count vs DMSO), 5 days (fraction); higher = more cells survive
[1] = compound: CCN1C(=O)C2=CC(=C(N=C2N(C1=O)C3CC3)N)C(=O)N
How it was run: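 Following overnight incubation at 37 °C, lung cancer cell lines in 1536-well plates were pinned with five library-drug doses (not always all listed) in √10 steps on vehicle-anchored plates. The cells then spent 5 days without medium change before a combined fix, permeabilisation and Hoechst stain, 4× imaging and MetaXpress nuclear counts. Viability is the treated-to-vehicle ratio of nuclei, taken as the median across plates. Only plates with control CV below 25% and at least one doubling passed.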

[2] = compound: CCN1C(=O)C2=CC(=C(N=C2N(C1=O)C3CC3)N)C(=O)N + C[C@]1(O)C[C@@H](c2nc(-c3ccc4ccc(-c5ccccc5)nc4c3)c3c(N)nccn32)C1 [Linsitinib] (partner 1 µM)
How it was run: (§1)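 Relative viability equals treated-well nuclei counts divided by vehicle-well nuclei counts. Counts came from 4× images of lung cancer cell lines grown in 1536-well plates for 5 days after pin-tool dosing on the day after seeding. Dosing used one drug alone or a fixed anchor-drug dose plus five library-drug doses (not always all listed) in √10 steps, and values are medians of duplicate plates.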

[3] = compound: CCN1C(=O)C2=CC(=C(N=C2N(C1=O)C3CC3)N)C(=O)N + C[C@@H](Oc1cc(-c2cnn(C3CCNCC3)c2)cnc1N)c1c(Cl)ccc(F)c1Cl [Crizotinib] (partner 1 µM)
How it was run: as §1

[4] = compound: CCN1C(=O)C2=CC(=C(N=C2N(C1=O)C3CC3)N)C(=O)N + CCNC(=O)c1noc(-c2cc(C(C)C)c(O)cc2O)c1-c1ccc(CN2CCOCC2)cc1 [Luminespib] (partner 0.01 µM)
How it was run: as §1

[5] = compound: CCN1C(=O)C2=CC(=C(N=C2N(C1=O)C3CC3)N)C(=O)N + O=C(CCCCCCC(=O)Nc1ccccc1)NO [Vorinostat] (partner 1 µM)
How it was run: as §1

| Cell Line | relative viability ([1]; 0.253 µM) | relative viability ([1]; 0.8 µM) | relative viability ([1]; 2.53 µM) | relative viability ([1]; 8 µM) | relative viability ([2]; first compound 0.253 µM) | relative viability ([2]; first compound 0.8 µM) | relative viability ([2]; first compound 2.53 µM) | relative viability ([2]; first compound 8 µM) | relative viability ([3]; first compound 0.253 µM) | relative viability ([3]; first compound 0.8 µM) | relative viability ([3]; first compound 2.53 µM) | relative viability ([3]; first compound 8 µM) | relative viability ([4]; first compound 0.253 µM) | relative viability ([4]; first compound 0.8 µM) | relative viability ([4]; first compound 2.53 µM) | relative viability ([4]; first compound 8 µM) | relative viability ([5]; first compound 0.253 µM) | relative viability ([5]; first compound 2.53 µM) | relative viability ([5]; first compound 8 µM) | relative viability ([5]; first compound 0.8 µM) |
| --- | --- | --- | --- | --- | --- | --- | --- | --- | --- | --- | --- | --- | --- | --- | --- | --- | --- | --- | --- | --- |
| NCI-H2405 | 1.09 | 1.02 | 1.06 | 0.982 | 1.05 | 0.954 | 1.04 | 0.988 | 0.866 | 0.844 | 0.817 | 0.873 | 0.668 | 0.844 | 0.755 | 0.652 | 1.21 | 1.26 | 1.14 |  |
| NCI-H3122 | 1.01 | 1.01 | 0.993 | 0.956 | 1.04 | 0.96 | 0.982 | 1.06 | 0.257 | 0.273 | 0.27 | 0.277 | 0.0925 | 0.0714 | 0.0957 | 0.0756 | 0.912 | 0.968 | 0.988 | 0.975 |
| PC-3 [JPC-3] | 1.06 | 1.01 | 1.06 | 1.08 | 0.982 | 0.933 | 0.92 | 0.919 | 1.04 | 0.953 | 0.914 | 0.94 | 0.661 | 0.709 | 0.663 | 0.823 | 0.93 | 1.22 | 1.08 |  |
| PC-14 | 0.983 | 0.951 | 1.07 | 1.06 | 0.96 | 0.973 | 0.948 | 0.929 | 0.973 | 0.939 | 0.845 | 0.941 | 0.144 | 0.159 | 0.158 | 0.119 | 0.621 | 0.679 | 0.779 | 0.743 |
| RERF-LC-KJ | 1.02 | 0.929 | 0.909 | 0.959 | 0.846 | 0.864 | 0.843 | 0.817 | 0.783 | 0.842 | 0.796 | 0.858 | 1.27 | 1.17 | 1.22 | 1.14 | 0.678 | 0.807 | 0.838 | 0.737 |
| SK-LU-1 | 1.05 | 1.07 | 1.06 | 1.06 | 1.02 | 1.14 | 1.23 | 1.06 | 1.11 | 0.749 | 0.805 | 0.931 | 0.177 | 0.201 | 0.194 | 0.215 | 0.699 | 0.773 | 0.876 | 0.755 |
| SK-MES-1 | 1.01 | 0.972 | 0.976 | 0.997 | 1.07 | 0.984 | 1.02 | 1.13 | 1.02 | 0.966 | 0.926 | 0.946 | 0.774 | 0.591 | 0.793 | 0.945 | 1.04 | 1.04 | 1.08 | 1.01 |
| SW 1573 | 0.937 | 1.07 | 0.959 | 0.978 | 0.817 | 0.729 | 0.797 | 0.781 | 0.855 | 0.744 | 0.696 | 0.772 | 0.191 | 0.377 | 0.303 | 0.427 | 0.824 | 0.624 | 0.682 | 0.848 |
| UMC-11 | 0.946 | 0.935 | 0.951 | 0.969 | 0.981 | 1.01 | 1.13 | 1.15 | 0.619 | 0.632 | 0.584 | 0.611 | 0.914 | 1.02 | 1.08 | 1.17 | 0.415 | 0.373 | 0.408 | 0.34 |
